For test [1], the system named is HCC1806. Put plainly: Growth inhibition assay for Breast Cancer (BC) Cell lines. It counts as cell-based. The conditions noted are these: Homo sapiens; HCC1806, TN; 96 hours, Cell Titer-Glo. Here is the method: (§1) Growth inhibition assay for Breast Cancer (BC) Cell lines. Compounds 1 (a TOR kinase inhibitor set forth herein having molecular formula C16H16N8O) and 2 (a TOR kinase inhibitor set forth herein having molecular formula C17H18N8O2) were dissolved in dimethyl sulfoxide (DMSO) to prepare a 10 mM stock solution. A serial titration was performed to produce a working concentration range of 1.5 µM to 10 mM. Aliquots to produce final concentrations of 1.5 nM to 10 µM were spotted via an acoustic dispenser (EDC ATS-100) into an empty 384-well plate. Compounds 1 and 2 were spotted in a 10-point serial dilution fashion (3-fold dilution) in duplicate within the plate. The DMSO concentration was kept constant for a final assay concentration of 0.1% DMSO. Plates were replicated for use with different cell lines and testing periods. After compound plate replication, all plates were sealed (Agilent ThermoLoc) and stored at -20° C. for up to 1 month. […] When ready for testing, plates were removed from the freezer, thawed, and unsealed just prior to the addition of the test cells. Prior to testing, cells were grown and expanded in culture flasks to provide sufficient amounts of starting material. Cells were then diluted to the appropriate densities and added directly to the compound-spotted 384-well plates. Cells were allowed to grow for 96 hours at 37° C./5% CO2. At the time when compound was added (t0), initial cell number was assessed via a viability assay (Cell Titer-Glo) by quantifying the level of luminescence generated by ATP present in viable cells. After 96 hours, cell viability of compound-treated cells was assessed via Cell Titer-Glo and luminescence measurement. Cell lines were assayed for growth inhibition by Compounds 1 and 2 in at least 3 independent tests. A control cell line (the lung tumor cell line, A549) was included in each of the assays. The compound response against this control cell line was monitored closely to enable comparison of the data generated through the assay period. All data were normalized and presented as a percentage of the DMSO-treated cells. Results were then expressed as a GI50 value. The GI50 value corrects for the cell count at time zero.

The subject of test [2] is MDA-MB-157. The description is as above. The test is classed as cell-based. As to conditions: Homo sapiens; MDA-MB-157, TN; 96 hours, Cell Titer-Glo. The procedure:
as §1

For test [3], the system named is MDA-MB-436. The test is described as above. It counts as cell-based. As to conditions: Homo sapiens; MDA-MB-436, TN; 96 hours, Cell Titer-Glo. The procedure:
as §1

For test [4], the system named is HCC1937. The description is as above. The test is classed as cell-based. As to conditions: Homo sapiens; HCC1937, TN; 96 hours, Cell Titer-Glo. The procedure:
as §1

Test [5] relates to CAL-120. Described as above. The conditions noted are these: Homo sapiens; CAL-120, TN; 96 hours, Cell Titer-Glo. The test is classed as cell-based. The procedure:
as §1

Test [6] relates to MDA-MB-231. Described as above. It counts as cell-based. The conditions noted are these: Homo sapiens; MDA-MB-231, TN; 96 hours, Cell Titer-Glo. Here is the method: as §1
In test [7] the test system is MB157. The test is described as above. The conditions noted are these: MB157, TN; 96 hours, Cell Titer-Glo. It counts as cell-based. The procedure:
as §1

Test [8] relates to BT-549. The description is as above. The test is classed as cell-based. The conditions noted are these: Homo sapiens; BT-549, TN; 96 hours, Cell Titer-Glo. Here is the method:
as §1

Test [9] relates to HCC1187. The test is described as above. It counts as cell-based. The conditions noted are these: Homo sapiens; HCC1187, TN; 96 hours, Cell Titer-Glo. The procedure:
as §1

The subject of test [10] is CAL-85-1. The test is described as above. The test is classed as cell-based. As to conditions: Homo sapiens; CAL-85-1, TN; 96 hours, Cell Titer-Glo. The procedure:
as §1

The test system of test [11] is HDQ-P1. Described as above. The test is classed as cell-based. As to conditions: Homo sapiens; HDQ-P1, TN; 96 hours, Cell Titer-Glo. Here is the method: as §1
Test [12] relates to CAL-148. The test is described as above. As to conditions: Homo sapiens; CAL-148, TN; 96 hours, Cell Titer-Glo. The test is classed as cell-based. Here is the method:
as §1

For test [13], the system named is HCC2157. Described as above. The test is classed as cell-based. As to conditions: Homo sapiens; HCC2157, TN; 96 hours, Cell Titer-Glo. Here is the method:
as §1

Test [14] has as its system HS578T. Described as above. It counts as cell-based. As to conditions: Homo sapiens, Hs-578T, TN, 96 hours, Cell Titer-Glo. The procedure:
as §1

Test [15] deals with CAL-51. The test is described as above. It counts as cell-based. The conditions noted are these: Homo sapiens; CAL-51, TN; 96 hours, Cell Titer-Glo. Here is the method: as §1
Test [16] has as its system HCC38. The test is described as above. The conditions noted are these: Homo sapiens; HCC38, TN; 96 hours, Cell Titer-Glo. The test is classed as cell-based. Here is the method: as §1
Test [17] relates to BT-20. The test is described as above. The test is classed as cell-based. The conditions noted are these: Homo sapiens; BT-20, TN; 96 hours, Cell Titer-Glo. Here is the method:
as §1

The test system of test [18] is DU4475. The test is described as above. It counts as cell-based. As to conditions: Homo sapiens, DU-4475; DU4475, TN; 96 hours, Cell Titer-Glo. Here is the method: as §1
Test [19] has as its system MDA-MB-231 tumors. Description: MDA-MB-231 Triple Negative (TN) Breast Cancer Model (xenograft). As to conditions: nude mice, subcutaneous MDA-MB-231 xenograft; oral QD for up to 26 days, 1 to 5 mg/kg. The test is classed as in vivo. The procedure:
A xenograft study was conducted with MDA-MB-231 tumor-bearing mice. Nude mice were inoculated subcutaneously with MDA-MB-231 cells in the flank region above the right hind leg. Following inoculation of animals, the tumors were allowed to grow to about 150 mm^3 prior to randomization. On Day 38 following tumor cell inoculation, the mice bearing MDA-MB-231 tumors ranging between 65 and 304 mm^3 were pooled together and randomized into various treatment groups. […] The positive control Taxotere (15 mg/kg, Q4D) was administered via the intravenous (IV) route. Taxotere was diluted in saline. Tumors were measured twice a week using calipers and tumor volumes were calculated using the formula of W2 × L / 2 (wherein “W” is tumor width and “L” is tumor length).

SMILES strings stand for the structures.

Turning to `CCN1C(=O)CNc2ncc(-c3ccc(-c4nc[nH]n4)nc3C)nc21` [Compound 1, 1-ethyl-7-(2-methyl-6-(1H-1,2,4-triazol-3-yl)pyridin-3-yl)-3,4-dihydropyrazino[2,3-b]pyrazin-2(1H)-one], the 50% growth inhibitory concentration (GI50) came to 187 nM in [1]; 472 nM in test [2]; 279 nM in test [3]; 161 nM in test [4]; 182 nM in test [5]; 185 nM in [6]. For the same compound, the GI50 in test [7] turned out to be 346 nM; in test [8], 146 nM; in [9], 195 nM; in [10] it was 88.8 nM; in [11] it was 162 nM; in test [12], 187 nM. For the same compound, the GI50 in test [13] amounted to 51.5 nM; in test [14], 286 nM; in test [15], 71 nM; in [16] it was 430 nM; in [17], 116 nM; in [18] it was 237 nM. Besides, in [19], the tumor growth entry is reported as “inhibited MDA-MB-231 breast cancer tumor growth”.

The values are drawn from US20230338370A1, “Treatment of Cancer with TOR Kinase Inhibitors” (Signal Pharmaceuticals, LLC, priority 2012, published 2023).
